IC50 data for six compounds are collected here from US8198273B2, “Compounds and methods for kinase modulation, and indications therefor” (Plexxikon Inc., priority 2009, dated 2012).

Assay [1] concerns SKMEL2 melanoma cells (Ras mutation). The assay is described as follows: SKMEL2 cell growth inhibition (ATPlite). The format is cell-based. The conditions noted are these: Homo sapiens, SK-MEL-2, 72 h; SKMEL2, 3 days incubation. The procedure:
(§1) Compounds are assessed in a variety of cell based assays. For example human cell lines with B-Raf V600E mutation (A375 melanoma, SKMEL3 melanoma, and COL0205 colon adenocarcinoma), as well as tumorigenic cell lines with wild-type B-RAF (SW620 colon adenocarcinoma) or with Ras mutations (SKMEL2 melanoma and IPC298 melanoma). Similar assays may be used to assess additional tumorigenic cell lines with Ras mutations, including, but not limited to, M202, M207, M243, M244, M296, S117, HCT116, HCT15, DLD1, MiaPaCa, A549, NCI-H23, NCI-H460, HOP62, MDA-MB231, Hs-578T, HL60, MOLT-4, and CCRF-CEM.
(§2) On day 1, cells are counted, then centrifuged in a conical tube for 5 minutes at 1000 rpm. The supernatant is removed and cells are re-suspended as follows: • SW620 (ATCC catalog #CCL-27): resuspend in Leibovitz's L-15 medium, 2 mM L-glutamine, 10% fetal bovine serum to 6×10^4 cells/mL. • A375 (ATCC catalog #CRL-1619): resuspend in Dulbecco's modified Eagle's medium, 4 mM L-glutamine, 4.5 g/L D-glucose, 10% fetal bovine serum to 6×10^4 cells/mL. • COL0205 (ATCC catalog #CCL-222): resuspend in RPMI 1640, 2 mM L-glutamine, 1.5 g/L sodium bicarbonate, 4.5 g/L D-glucose, 10 mM HEPES, 1.0 mM sodium pyruvate, 10% fetal bovine serum to 6×10^4 cells/mL. • SKMEL2 (ATCC catalog #HTB-68): resuspend in Minimum Eagle essential medium, 2 mM L-glutamine, 1.5 g/L sodium bicarbonate, 0.1 mM non-essential amino acids, 1.0 mM sodium pyruvate, 10% fetal bovine serum to 6×10^4 cells/mL. • SKMEL3 (ATCC catalog #HTB-69): resuspend in McCoy's 5A medium, 1.5 mM L-glutamine, 15% fetal bovine serum to 6×10^4 cells/mL. • IPC298 (DSMZ catalog #ACC 251): resuspend in RPMI 1640, 2 mM L-glutamine, 10% fetal bovine serum to 6×10^4 cells/mL.
(§3) The cells are plated, 50 μL in each well of a 96-well dish (Corning 3610) and incubated at 37° C. in 5% CO2 overnight, cells plated to a final concentration of cells as follows:
SKMEL2: 2,000 cells per well.
(§4) On day 2, compound at a maximum concentration of 5 mM is serially diluted 1:3 for a total of 8 point titration with DMSO as a control. A 1 μL aliquot of each dilution point and control is added to 249 μL growth media and 50 μL is added to a well containing cells, providing 10 μM compound at the maximum concentration point. The cells are incubated for 3 days at 37° C. in 5% CO2.
(§5) On day 5, ATPlite 1 step Luminescence Assay System (Perkin Elmer #6016739) is brought to room temperature along with the cell cultures. ATPlite is added 25 μL to each well, shake for 2 minutes, and the cells are incubated at room temperature for 10 minutes, then luminescence is read on Safire reader. The measured luminescence correlates directly with cell number, such that the reading as a function of compound concentration is used to determine the IC50 value.
(§6) It is understood that the results of these assays may vary as assay conditions are varied. Inhibition levels determined under the conditions described herein represent a relative activity for the compounds tested under the specific conditions employed. The cell based assays are likely to show variability due to the complexity of the system and the sensitivity thereof to any changes in the assay conditions. […] Results for compounds that are tested and show substantially no inhibition below the highest tested concentration are represented as “-” in the tables below. In some instances, the compounds were not tested in all of the assays, or assay results were not valid, as indicated by NA in the tables below.

Assay [2] relates to A375 melanoma cells (B-Raf V600E). The assay is described as follows: A375 cell growth inhibition (ATPlite). The format is cell-based. The conditions noted are these: Homo sapiens, A-375, 72 h; A375, 3 days incubation. The procedure:
as §1, §2, §3, §4, §5, §6

For assay [3], the system named is SW620 colon adenocarcinoma cells (wild-type B-RAF). The assay is described as follows: SW620 cell growth inhibition (ATPlite). The format is cell-based. Conditions: Homo sapiens, SW-620, 72 h; SW620, 3 days incubation. How it is done:
as §1, §2, §3, §4, §5, §6

Assay [4] has as its system COLO205 colon adenocarcinoma cells (B-Raf V600E). As to the kind of experiment: COLO205 cell growth inhibition (ATPlite). The format is cell-based. Conditions: Homo sapiens, COLO 205, 72 h; COLO205, 3 days incubation. The procedure:
as §1, §2, §3, §4, §5, §6

Assay [5] deals with B-Raf V600E (Homo sapiens, UniProt P15056, V600E). As to the kind of experiment: B-Raf V600E biochemical kinase inhibition (AlphaScreen, biotin-MEK1 substrate). The conditions noted are these: 100 μM ATP. How it is done: (§7) Compounds to be tested are diluted in dimethyl sulfoxide to a concentration of 0.1 mM. These are serially diluted 15 μL into 30 μL of dimethyl sulfoxide seven times in 96 well plates for a total of 8 dilution points, and for each dilution point 1 μL is added to a well of an assay plate. […] The reaction is started with addition of 10 μL of 200 μM ATP (i.e. final 100 μM ATP). […] The plates are incubated for 3 hours at room temperature and read on Envision reader (Perkin Elmer). […] The signal vs. compound concentration is used to determine the IC50.

The target of assay [6] is B-Raf (Homo sapiens, UniProt P15056). The assay is described as follows: B-Raf biochemical kinase inhibition (AlphaScreen, biotin-MEK1 substrate). Conditions: 100 μM ATP. How it is done: as §7
For assay [7], the target named is c-Raf-1 (Homo sapiens, UniProt P04049). The assay is described as follows: c-Raf-1 biochemical kinase inhibition (AlphaScreen, biotin-MEK1 substrate). Conditions: 100 μM ATP. The procedure: as §7
Assay [8] has as its target T1, A-Raf (Homo sapiens, UniProt P10398).
T1 sequence (P10398 1-606): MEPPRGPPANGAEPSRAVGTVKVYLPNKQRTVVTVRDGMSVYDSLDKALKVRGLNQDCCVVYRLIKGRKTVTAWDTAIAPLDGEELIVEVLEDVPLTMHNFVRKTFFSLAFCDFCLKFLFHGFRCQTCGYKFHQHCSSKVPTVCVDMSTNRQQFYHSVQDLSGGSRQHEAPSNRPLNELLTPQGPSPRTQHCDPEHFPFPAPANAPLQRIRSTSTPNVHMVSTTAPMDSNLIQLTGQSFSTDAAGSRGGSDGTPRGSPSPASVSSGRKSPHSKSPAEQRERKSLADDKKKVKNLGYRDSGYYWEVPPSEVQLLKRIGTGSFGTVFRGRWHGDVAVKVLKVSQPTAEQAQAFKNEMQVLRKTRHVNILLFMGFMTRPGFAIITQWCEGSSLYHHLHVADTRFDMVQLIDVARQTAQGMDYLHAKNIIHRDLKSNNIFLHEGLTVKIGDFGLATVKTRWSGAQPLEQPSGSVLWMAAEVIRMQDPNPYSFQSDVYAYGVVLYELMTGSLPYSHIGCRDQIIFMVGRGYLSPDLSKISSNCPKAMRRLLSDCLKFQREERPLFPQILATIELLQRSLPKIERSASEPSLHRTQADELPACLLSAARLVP
The assay is described as follows: A-Raf biochemical kinase inhibition (AlphaScreen, biotin-MEK1 substrate). Conditions: 100 μM ATP. The procedure:
as §7

pIC50: −log10 of the molar value. Bounds are passed on as bounds.

B-Raf V600E, sequence (P15056 whole entry V600E): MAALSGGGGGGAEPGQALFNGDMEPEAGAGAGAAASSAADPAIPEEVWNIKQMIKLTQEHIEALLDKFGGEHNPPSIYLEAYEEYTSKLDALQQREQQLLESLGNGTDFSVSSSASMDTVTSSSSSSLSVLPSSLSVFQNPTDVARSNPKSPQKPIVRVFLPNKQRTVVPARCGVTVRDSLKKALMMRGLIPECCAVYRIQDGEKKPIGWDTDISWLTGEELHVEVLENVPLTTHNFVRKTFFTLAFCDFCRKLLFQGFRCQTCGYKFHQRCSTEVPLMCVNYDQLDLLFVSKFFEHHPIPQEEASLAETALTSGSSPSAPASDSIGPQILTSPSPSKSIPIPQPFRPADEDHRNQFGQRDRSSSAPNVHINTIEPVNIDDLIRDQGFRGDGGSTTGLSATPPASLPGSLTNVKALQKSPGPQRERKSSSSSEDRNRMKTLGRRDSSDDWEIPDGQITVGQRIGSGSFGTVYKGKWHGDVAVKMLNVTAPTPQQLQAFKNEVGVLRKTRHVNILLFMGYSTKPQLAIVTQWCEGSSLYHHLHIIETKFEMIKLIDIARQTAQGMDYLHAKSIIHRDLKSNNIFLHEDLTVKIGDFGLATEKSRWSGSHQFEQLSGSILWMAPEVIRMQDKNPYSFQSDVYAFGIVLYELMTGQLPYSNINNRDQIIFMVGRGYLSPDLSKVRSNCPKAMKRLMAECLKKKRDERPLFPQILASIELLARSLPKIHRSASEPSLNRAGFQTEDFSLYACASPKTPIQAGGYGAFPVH
B-Raf, sequence (P15056 whole entry): as the sequence (P15056 whole entry V600E) above, with E600V counted along it
c-Raf-1, sequence (P04049 whole entry): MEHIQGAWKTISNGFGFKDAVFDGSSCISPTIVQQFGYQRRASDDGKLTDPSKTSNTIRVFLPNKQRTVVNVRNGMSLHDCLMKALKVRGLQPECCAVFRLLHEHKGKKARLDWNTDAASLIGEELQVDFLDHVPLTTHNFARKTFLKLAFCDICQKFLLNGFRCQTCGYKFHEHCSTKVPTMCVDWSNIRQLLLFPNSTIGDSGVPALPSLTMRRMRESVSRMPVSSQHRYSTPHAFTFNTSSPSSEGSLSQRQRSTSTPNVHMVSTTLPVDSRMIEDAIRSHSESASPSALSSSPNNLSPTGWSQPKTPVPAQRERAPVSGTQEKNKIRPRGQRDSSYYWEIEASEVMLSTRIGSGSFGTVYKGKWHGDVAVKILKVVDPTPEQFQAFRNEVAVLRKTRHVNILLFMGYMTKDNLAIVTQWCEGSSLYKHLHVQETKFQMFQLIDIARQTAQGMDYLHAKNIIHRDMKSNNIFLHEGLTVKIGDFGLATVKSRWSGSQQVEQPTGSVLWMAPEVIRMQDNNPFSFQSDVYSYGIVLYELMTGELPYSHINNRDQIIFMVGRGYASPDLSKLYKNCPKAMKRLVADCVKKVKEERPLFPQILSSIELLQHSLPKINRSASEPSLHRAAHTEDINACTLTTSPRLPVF

For `O=C(c1c(F)ccc(NS(=O)(=O)c2cccnc2)c1F)c1c[nH]c2nccc(Cl)c12` [P-2074, Pyridine-3-sulfonic acid [3-(4-chloro-1H-pyrrolo[2,3-b]pyridine-3-carbonyl)-2,4-difluoro-phenyl]-amide], the pIC50 is less than 5.00 in assay [1], greater than 5.30 in assay [2], less than 5.00 in assay [3] and greater than 5.00 in assay [4].

Consider `CCCS(=O)(=O)Nc1ccc(F)c(C(=O)c2c[nH]c3ncc(-c4ccc(NC(C)=O)cc4)cc23)c1F` [P-2161, N-(4-{3-[2,6-Difluoro-3-(propane-1-sulfonylamino)-benzoyl]-1H-pyrrolo[2,3-b]pyridin-5-yl}-phenyl)-acetamide], for which the pIC50 is greater than 5.00 in assay [1]; greater than 8.00 in assay [5]; greater than 6.00 in assay [2]; less than 5.00 in assay [3]; greater than 6.00 in assay [4].

For `CCCS(=O)(=O)Nc1ccc(F)c(C(=O)c2c[nH]c3ncc(-c4ccc(C)nc4F)cc23)c1F` [P-2172, Propane-1-sulfonic acid {2,4-difluoro-3-[5-(2-fluoro-6-methyl-pyridin-3-yl)-1H-pyrrolo[2,3-b]pyridine-3-carbonyl]-phenyl}-amide], the pIC50 was greater than 7.00 in assay [6]; greater than 5.30 in assay [1]; greater than 7.00 in assay [5]; greater than 6.00 in assay [2]; greater than 5.00 in assay [3]; greater than 6.00 in assay [4].

For `CCCS(=O)(=O)Nc1ccc(F)c(C(=O)c2c[nH]c3ncc(-c4ccc(C(N)=O)nc4)cc23)c1F` [P-2220, 5-{3-[2,6-Difluoro-3-(propane-1-sulfonylamino)-benzoyl]-1H-pyrrolo[2,3-b]pyridin-5-yl}-pyridine-2-carboxylic acid amide], the pIC50 in assay [7] is greater than 7.00; in assay [6], greater than 7.00; in assay [8], greater than 8.00; in assay [5] it was greater than 7.00; in assay [2], greater than 6.00; in assay [3], less than 5.00. Moreover, in assay [4], the pIC50 is greater than 6.00.

`CCCS(=O)(=O)Nc1ccc(F)c(C(=O)c2c[nH]c3ncc(-c4ccc(O)nc4)cc23)c1F` [P-2234, Propane-1-sulfonic acid {2,4-difluoro-3-[5-(6-hydroxy-pyridin-3-yl)-1H-pyrrolo[2,3-b]pyridine-3-carbonyl]-phenyl}-amide]: the pIC50 in assay [7] is greater than 8.00; in assay [6], greater than 8.00; in assay [8], greater than 8.00; in assay [1], less than 5.00; in assay [5], greater than 8.00; in assay [2], greater than 5.30. In addition, the pIC50 in assay [3] was less than 5.00; in assay [4], greater than 5.30.

Take `CC(C)CS(=O)(=O)Nc1ccc(F)c(C(=O)c2c[nH]c3ncc(-c4cnn(C)c4)cc23)c1F` [P-2299, 2-Methyl-propane-1-sulfonic acid {2,4-difluoro-3-[5-(1-methyl-1H-pyrazol-4-yl)-1H-pyrrolo[2,3-b]pyridine-3-carbonyl]-phenyl}-amide]: the pIC50 in assay [6] was greater than 8.00; in assay [1], less than 5.00; in assay [5], greater than 8.00; in assay [2] it was greater than 6.00; in assay [3], less than 5.00; in assay [4], greater than 6.00.
